Laboratory results as given in patent US8394442B2, “Process for the preparation of a flavoring concentrate, and a flavoring concentrate” (SYMRISE AG, priority 2007, dated 2013).
Read-outs that look alike come from different tables or passages of the source.

Assays:
[1] = log Pow: distribution coefficient between 1-octanol and water; details: 1-octanol/water
Source text: Log Pow*=log Pow*−x*P′(x)/log Pow Formula 2: • where log Pow is the decimal logarithm of the distribution coefficient of a substance between 1-octanol and water, • x is the resulting solvent proportion based on the total volume proportion, normalized as 1.0, and • P′(x) is the polarity parameter for the corresponding solvent for the solvent proportion x.

[2] = log Pow* calculated by Formula 2 from log Pow and the polarity parameter P′(x) of the ethanol/water mixture
[3] = solvent ethanol, proportion 10%
[4] = solvent ethanol, proportion 30%
[5] = solvent ethanol, proportion 40%
[6] = solvent ethanol, proportion 50%
[7] = solvent ethanol, proportion 60%
[8] = solvent ethanol, proportion 70%
[9] = solvent ethanol, proportion 80%
[10] = solvent ethanol, proportion 90%
[11] = solvent ethanol, proportion 100%

Compound	log Pow [1]	log Pow* (P′ 2%) ([2]; solvent ethanol, proportion 2%)	log Pow* (P′ 4%) ([2]; solvent ethanol, proportion 4%)	log Pow* (P′ 6%) ([2]; solvent ethanol, proportion 6%)	log Pow* (P′ 8%) ([2]; solvent ethanol, proportion 8%)	log Pow* (P′ 10%) [2, 3]	log Pow* (P′ 30%) [2, 4]	log Pow* (P′ 40%) [2, 5]	log Pow* (P′ 50%) [2, 6]	log Pow* (P′ 60%) [2, 7]	log Pow* (P′ 70%) [2, 8]	log Pow* (P′ 80%) [2, 9]	log Pow* (P′ 90%) [2, 10]	log Pow* (P′ 100%) [2, 11]	further results
CC(=O)/C=C/C1C(C)=CCCC1(C)C (stereo not drawn) [alpha-ionone]	3.86	3.81	3.76	3.71	3.67	3.63	3.30	3.18	3.08	2.99	2.92	2.85	2.80	2.75	–
CS [Methylmercaptan]	0.65	0.34	0.05	−0.22	−0.48	−0.73	−2.68	−3.40	−4.00	−4.51	−4.95	−5.33	−5.67	−5.97	–
CCCSSCCC [Dipropyldisulfide]	3.90	–	–	–	–	–	–	–	–	–	–	–	–	–	log Pow* (P′ 2%) [2]: 3.85; log Pow* (P′ 4%) [2]: 3.80; log Pow* (P′ 6%) [2]: 3.76; log Pow* (P′ 8%) [2]: 3.71; log Pow* (P′ 10%) [2]: 3.67; log Pow* (P′ 30%) [2]: 3.34; log Pow* (P′ 40%) [2]: 3.22; log Pow* (P′ 50%) [2]: 3.12; log Pow* (P′ 60%) [2]: 3.04; log Pow* (P′ 70%) [2]: 2.97; log Pow* (P′ 80%) [2]: 2.90; log Pow* (P′ 90%) [2]: 2.85; log Pow* (P′ 100%) [2]: 2.80
c1ccc2[nH]ccc2c1 [Indole]	2.14	2.05	1.96	1.88	1.80	1.72	1.13	0.91	0.73	0.57	0.44	0.32	0.22	0.13	–
CCC/C=C/CO [2E-hexenol]	1.75	1.64	1.53	1.43	1.33	1.24	0.51	0.24	0.02	−0.17	−0.33	−0.47	−0.60	−0.71	–
SCc1ccco1 [Furfurylthiol-2]	1.90	1.80	1.70	1.60	1.51	1.43	0.76	0.51	0.31	0.13	−0.02	−0.15	−0.26	−0.36	–
CCC/C=C/C=O [2E-hexenal]	1.61	1.49	1.37	1.26	1.15	1.05	0.26	−0.03	−0.27	−0.47	−0.65	−0.81	−0.94	−1.06	–
CCCCOC(C)=O [Butylacetate]	1.77	1.66	1.55	1.45	1.35	1.26	0.55	0.28	0.06	−0.13	−0.29	−0.43	−0.55	−0.66	–

The next lines start with results.

log Pow [1]	log Pow* (P′ 2%) ([2]; solvent ethanol, proportion 2%)	log Pow* (P′ 4%) ([2]; solvent ethanol, proportion 4%)	log Pow* (P′ 6%) ([2]; solvent ethanol, proportion 6%)	log Pow* (P′ 8%) ([2]; solvent ethanol, proportion 8%)	log Pow* (P′ 10%) [2, 3]	log Pow* (P′ 30%) [2, 4]	log Pow* (P′ 40%) [2, 5]	log Pow* (P′ 50%) [2, 6]	log Pow* (P′ 60%) [2, 7]	log Pow* (P′ 70%) [2, 8]	log Pow* (P′ 80%) [2, 9]	log Pow* (P′ 90%) [2, 10]	log Pow* (P′ 100%) [2, 11]	Compound	further results
1.28	–	–	–	–	–	–	–	–	–	–	–	–	–	CC(C)CCO [3-mebutanol, 3-methylbutanol]	log Pow* (P′ 2%) [2]: 1.12; log Pow* (P′ 4%) [2]: 0.98; log Pow* (P′ 6%) [2]: 0.84; log Pow* (P′ 8%) [2]: 0.71; log Pow* (P′ 10%) [2]: 0.58; log Pow* (P′ 30%) [2]: −0.41; log Pow* (P′ 40%) [2]: −0.78; log Pow* (P′ 50%) [2]: −1.08; log Pow* (P′ 60%) [2]: −1.34; log Pow* (P′ 70%) [2]: −1.57; log Pow* (P′ 80%) [2]: −1.76; log Pow* (P′ 90%) [2]: −1.93; log Pow* (P′ 100%) [2]: −2.08
2.42	2.34	2.26	2.19	2.12	2.05	1.52	1.33	1.17	1.03	0.92	0.81	0.72	0.64	CCCCCC1CCCC(=O)O1 (centres unmarked) [delta decalactone]	–
2.38	2.30	2.22	2.14	2.07	2.00	1.47	1.27	1.11	0.97	0.85	0.75	0.65	0.57	CCOC(=O)C(C)CC (centres unmarked) [Ethylmethylbutyrate-2]	–
3.03	–	–	–	–	–	–	–	–	–	–	–	–	–	CCCCCCCC=O [Octanal]	log Pow* (P′ 2%) [2]: 2.96; log Pow* (P′ 4%) [2]: 2.90; log Pow* (P′ 6%) [2]: 2.84; log Pow* (P′ 8%) [2]: 2.79; log Pow* (P′ 10%) [2]: 2.73; log Pow* (P′ 30%) [2]: 2.31; log Pow* (P′ 40%) [2]: 2.16; log Pow* (P′ 50%) [2]: 2.03; log Pow* (P′ 60%) [2]: 1.92; log Pow* (P′ 70%) [2]: 1.83; log Pow* (P′ 80%) [2]: 1.75; log Pow* (P′ 90%) [2]: 1.67; log Pow* (P′ 100%) [2]: 1.61
2.38	2.30	2.22	2.14	2.07	2.00	1.47	1.27	1.11	0.97	0.85	0.75	0.65	0.57	CCCCCCC1CCC(=O)O1 (centres unmarked) [gamma-decalactone]	–
2.30	2.21	2.13	2.05	1.98	1.91	1.36	1.15	0.98	0.84	0.72	0.61	0.51	0.43	CCCCCC(=O)OC [Methylcapronate]	–
1.60	1.48	1.36	1.25	1.14	1.04	0.25	−0.05	−0.29	−0.50	−0.68	−0.83	−0.97	−1.09	Ethyldimethylpyrazine	–
−1.33	−1.48	−1.62	−1.76	−1.88	−2.00	−2.96	−3.31	−3.60	−3.85	−4.07	−4.25	−4.42	−4.56	CC(=O)C(C)=O [Diacetyl]	–
2.09	1.99	1.90	1.82	1.74	1.66	1.05	0.83	0.64	0.48	0.35	0.23	0.12	0.03	Isopropylmethoxypyrazine	–
2.83	–	–	–	–	–	–	–	–	–	–	–	–	–	CCCSSC [Methylpropyldisulfide]	log Pow* (P′ 2%) [2]: 2.76; log Pow* (P′ 4%) [2]: 2.69; log Pow* (P′ 6%) [2]: 2.63; log Pow* (P′ 8%) [2]: 2.57; log Pow* (P′ 10%) [2]: 2.51; log Pow* (P′ 30%) [2]: 2.06; log Pow* (P′ 40%) [2]: 1.90; log Pow* (P′ 50%) [2]: 1.76; log Pow* (P′ 60%) [2]: 1.64; log Pow* (P′ 70%) [2]: 1.54; log Pow* (P′ 80%) [2]: 1.46; log Pow* (P′ 90%) [2]: 1.38; log Pow* (P′ 100%) [2]: 1.31
1.77	–	–	–	–	–	–	–	–	–	–	–	–	–	CCCC(=O)OCC [Ethylbutyrate]	log Pow* (P′ 2%) [2]: 1.66; log Pow* (P′ 4%) [2]: 1.55; log Pow* (P′ 6%) [2]: 1.45; log Pow* (P′ 8%) [2]: 1.35; log Pow* (P′ 10%) [2]: 1.26; log Pow* (P′ 30%) [2]: 0.55; log Pow* (P′ 40%) [2]: 0.28; log Pow* (P′ 50%) [2]: 0.06; log Pow* (P′ 60%) [2]: −0.13; log Pow* (P′ 70%) [2]: −0.29; log Pow* (P′ 80%) [2]: −0.43; log Pow* (P′ 90%) [2]: −0.55; log Pow* (P′ 100%) [2]: −0.66
